Patent US10047050B2, “3,4-di-substituted pyridine compound, methods of using and compositions comprising the same” (ARDEA BIOSCIENCES, INC., priority 2011, dated 2018)

Molecular target: T1, URAT-1 model (Homo sapiens, UniProt Q96S37)
T1 sequence (Q96S37 1-553): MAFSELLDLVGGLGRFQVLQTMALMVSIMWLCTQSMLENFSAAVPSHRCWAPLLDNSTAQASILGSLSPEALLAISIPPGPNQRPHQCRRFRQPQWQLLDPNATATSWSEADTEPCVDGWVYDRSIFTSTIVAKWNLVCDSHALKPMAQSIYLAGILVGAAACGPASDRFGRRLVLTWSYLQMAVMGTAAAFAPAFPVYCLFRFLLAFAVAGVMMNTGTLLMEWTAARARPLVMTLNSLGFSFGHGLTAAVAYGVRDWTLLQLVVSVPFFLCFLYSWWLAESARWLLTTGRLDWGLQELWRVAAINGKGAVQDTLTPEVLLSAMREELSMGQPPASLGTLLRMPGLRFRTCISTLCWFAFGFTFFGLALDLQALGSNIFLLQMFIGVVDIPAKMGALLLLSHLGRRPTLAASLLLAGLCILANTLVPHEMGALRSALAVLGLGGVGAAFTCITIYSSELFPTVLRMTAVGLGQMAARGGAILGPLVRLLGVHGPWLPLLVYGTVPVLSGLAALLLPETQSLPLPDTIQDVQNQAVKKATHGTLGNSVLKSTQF
Assay: URAT1-model assay, 14C-uric acid transport in HEK293/URAT1-model cells
Format: cell-based
Settings: 125 μM 14C-uric acid, 10 minutes
Method: Transfections of HEK293 cells with a model URAT1 construct was performed using L2000 transfection reagent (Invitrogen) as described by the manufacturer. After 24 h the transfected cells were split into 10 cm tissue culture plates and grown for 1 day after which the medium was replaced with fresh growth medium containing G418 (Gibco) at 0.5 mg/ml final concentration. Drug-resistant colonies were selected after approximately 8 days and then tested for ^14C-uric acid transport activity. The HEK293/URAT1-model cells are plated on Poly-D-Lysine Coated 96-well Plates at a density of 125,000 cells per well.
Cells were grown overnight (20-26 hours) at 37° C. in an incubator. Plates were allowed to come to room temperature and media was washed out with one wash of 250 μl of Wash Buffer (125 mM Na Gluconate, 10 mM Hepes ph 7.3). […] Assay Buffer is 125 mM Sodium Gluconate, 4.8 mM Potassium Gluconate, 1.2 mM Potassium phosphate, monobasic, 1.2 mM magnesium sulfate, 1.3 mM Ca Gluconate, 5.6 mM Glucose, 25 mM HEPES, pH 7.3. Plates were incubated at room temperature for 10 minutes then washed 3 times with 50 μl Wash Buffer and 3 times with 250 μl Wash Buffer. Microscint 20 Scintillation Fluid was added and plates were incubated overnight at room temperature to equilibrate. Plates are then read on the TopCount Plate Reader and an EC50 value generated. […]

EC50: ≤ 50 nM
SMILES: CC(C)(Sc1ccncc1-c1ccc(C#N)c2ccccc12)C(=O)O [2-((3-(4-cyanonaphthalen-1-yl)pyridin-4-yl)thio)-2-methylpropanoic acid]
